# In US6800101B2, “Deactivatable biocides for hydrocarbonaceous products” (priority 2001, dated 2004):
# Assays:
# bacterial inoculum = test: Neutralization of biocides with other nitrogen compounds; assay type: cell-based; conditions: for microbial growth: n-C16; for neutralizing 10 ppm of gluteraldehyde: two moles per mole gluteraldehyde
# Source text: The different nitrogen-containing compounds evaluated include the following:
# alkane degrading culture = test: Evaluation of biocides: growth inhibition on FT diesel and ALAD diesel; assay type: cell-based; for microbial growth: key: −: No Growth; +: Growth (White Unless Otherwise Indicated)
# Method: Growth Media: A standard minimal media containing only inorganic nutrients required for bacterial growth was used. The medium used to supply inorganic micronutrients to the growing culture of alkane degrading organisms consisted of 0.1 g/L MgSO4.7H2O, 0.5 g/L NaNO3, 0.02 millimolar FeSO4 and 0.63 g/L K2HPO4 and 0.19 g/L KH2PO4 to achieve a pH of 7 to 7.3.
# Test Conditions: 90 ml of growth media and 10 ml of either FT diesel or low sulfur (ALAD) diesel was added to 250 ml flasks. […] In addition to 2 alkynes, glutaraldehyde (glutaric dialdehyde 50%), was tested. The following summarizes the test conditions:
# Sterile control (media boiled prior to adding FT or ALAD, not inoculated)
# Inculated control (no inhibitor)
# 100 ppm inhibitor (on a total test volume basis or 1000 ppm in diesel)
# 1% inhibitor (on a total test volume basis or 10% in diesel).
# After inoculation, the flasks were place on a shaker-table (135 rpm) at room temperature and observed daily.
# bacteria = assay type: cell-based
# in vivo = assay type: in vivo; conditions: Cyprinodon variegatus (sheepshead minnow), in vivo
# Method: (§1) […]. EPA/600/4-90/027F Washington D.C. section 2.02, paragraph 1.) conducted at Pacific Eco-Risk Laboratories, Martinez, Calif.
# (§2) LOEC is the Lowest Observable Effect Concentration and is defined as the minimum concentration where mortality is observed for the test species. […] LC-50, the concentration that will cause mortality of 50% of the organisms tested within 96 h, is a calculated value based on all observations.
# (§3) The solutions were mixed for 48 hours prior to the start of the bioassays. The solutions were diluted to perform bioassays at starting glutaraldehyde concentrations of 100, 50, 37.5, 25, and 10, 5 mg/L
# [1] = test system: Larval Sheepshead Minnow (Cyprinodon variegatus); test: in vivo; assay type: in vivo; conditions: for LOEC / NOEC: Cyprinodon variegatus (sheepshead minnow), in vivo, 96 h
# Method: as §1, §2, §3
# microbial growth = test: Evaluation of lower amounts of water; assay type: cell-based; conditions: 100 ppm; 90% Fischer-Tropsch diesel fuel, 10% minimal media; after 16 days
# Source text: In this example, an experiment was done using a lower amount of water. 90% Fischer-Tropsch diesel fuel was mixed with 10% minimal media. One flask was used as a control and the other contained 100 ppm […].
# [2] = 10 ppm gluteraldehyde + two moles nitrogen compound per mole, day 0
# [3] = 10 ppm gluteraldehyde + two moles nitrogen compound per mole, day 1
# [4] = 10 ppm gluteraldehyde + two moles nitrogen compound per mole, day 2
# [5] = 10 ppm gluteraldehyde + two moles nitrogen compound per mole, day 6
# [6] = 10 ppm gluteraldehyde + two moles nitrogen compound per mole, day 7
# [7] = 10 ppm gluteraldehyde + two moles nitrogen compound per mole, day 9
# [8] = 10 ppm gluteraldehyde + two moles nitrogen compound per mole, day 13
# [9] = 10 ppm gluteraldehyde + two moles nitrogen compound per mole, day 20
# [10] = control: nitrogen compound without gluteraldehyde, day 0
# [11] = control: nitrogen compound without gluteraldehyde, day 1
# [12] = control: nitrogen compound without gluteraldehyde, day 2
# [13] = control: nitrogen compound without gluteraldehyde, day 6
# [14] = control: nitrogen compound without gluteraldehyde, day 7
# [15] = control: nitrogen compound without gluteraldehyde, day 9
# [16] = control: nitrogen compound without gluteraldehyde, day 13
# [17] = control: nitrogen compound without gluteraldehyde, day 20
# [18] = LA (ALAD) Diesel + 1 Wt %, Day 0
# [19] = LA (ALAD) Diesel + 1 Wt %, Day 1
# [20] = LA (ALAD) Diesel + 1 Wt %, Day 5
# [21] = LA (ALAD) Diesel + 1 Wt %, Day 7
# [22] = LA (ALAD) Diesel + 1 Wt %, Day 8
# [23] = LA (ALAD) Diesel + 1 Wt %, Day 19
# [24] = LA (ALAD) Diesel + 100 ppm, Day 0
# [25] = LA (ALAD) Diesel + 100 ppm, Day 1
# [26] = LA (ALAD) Diesel + 100 ppm, Day 5
# [27] = LA (ALAD) Diesel + 100 ppm, Day 7
# [28] = LA (ALAD) Diesel + 100 ppm, Day 8
# [29] = LA (ALAD) Diesel + 100 ppm, Day 19
structure (smiles),measurement,setting,value
"OCCNCCO [DEA, Diethanolamine]",toxicity of the nitrogen-containing compound to microbial growth,bacterial inoculum,not excessively toxic
same,microbial growth,bacterial inoculum; [2],−
same,microbial growth,bacterial inoculum; [3],+
same,microbial growth,bacterial inoculum; [4],+
same,microbial growth,bacterial inoculum; [5],+
same,microbial growth,bacterial inoculum; [6],+
same,microbial growth,bacterial inoculum; [7],+
same,microbial growth,bacterial inoculum; [8],+
same,microbial growth,bacterial inoculum; [9],+
same,microbial growth,bacterial inoculum; [10],−
same,microbial growth,bacterial inoculum; [11],−
same,microbial growth,bacterial inoculum; [12],−
same,microbial growth,bacterial inoculum; [13],+
same,microbial growth,bacterial inoculum; [14],+
same,microbial growth,bacterial inoculum; [15],+
same,microbial growth,bacterial inoculum; [16],+
same,microbial growth,bacterial inoculum; [17],+
same,neutralizing 10 ppm of gluteraldehyde,bacterial inoculum,effective
"O=CCCCC=O [G, glutaraldehyde]",effectiveness as biocide,alkane degrading culture; ALAD diesel fuel,effective at a lower concentration
same,microbial growth,"alkane degrading culture; FT Diesel + 1 Wt %, Day 0",−
same,microbial growth,"alkane degrading culture; FT Diesel + 1 Wt %, Day 1",−
same,microbial growth,"alkane degrading culture; FT Diesel + 1 Wt %, Day 5",−
same,microbial growth,"alkane degrading culture; FT Diesel + 1 Wt %, Day 7",−
same,microbial growth,"alkane degrading culture; FT Diesel + 1 Wt %, Day 8",−
same,microbial growth,"alkane degrading culture; FT Diesel + 1 Wt %, Day 19",−
same,microbial growth,"alkane degrading culture; FT Diesel + 100 ppm, Day 0",−
same,microbial growth,"alkane degrading culture; FT Diesel + 100 ppm, Day 1",−
same,microbial growth,"alkane degrading culture; FT Diesel + 100 ppm, Day 5",−
same,microbial growth,"alkane degrading culture; FT Diesel + 100 ppm, Day 7",−
same,microbial growth,"alkane degrading culture; FT Diesel + 100 ppm, Day 8",−
same,microbial growth,"alkane degrading culture; FT Diesel + 100 ppm, Day 19",+
same,effectiveness as biocide,alkane degrading culture; Fischer-Tropsch diesel fuel,effective at a lower concentration
same,microbial growth,alkane degrading culture; [18],−
same,microbial growth,alkane degrading culture; [19],−
same,microbial growth,alkane degrading culture; [20],−
same,microbial growth,alkane degrading culture; [21],−
same,microbial growth,alkane degrading culture; [22],−
same,microbial growth,alkane degrading culture; [23],−
same,microbial growth,alkane degrading culture; [24],−
same,microbial growth,alkane degrading culture; [25],−
same,microbial growth,alkane degrading culture; [26],−
same,microbial growth,alkane degrading culture; [27],−
same,microbial growth,alkane degrading culture; [28],−
same,microbial growth,alkane degrading culture; [29],−
same,microbial growth,bacteria,no growth
same,LC50 at 96 h,in vivo,> 100 µg/mL
same,LOEC,[1],25 mg/L
same,NOEC,[1],13 mg/L
same,LC50,"[1]; second experiment, Glutaraldehyde 100 mg/L, MEA 125 mg/L, molar ratio 1:2, mixed 48 hours",>100 µg/mL
"C#CCCCC [H, 1-hexyne]",microbial growth,"alkane degrading culture; FT Diesel + 1 Wt %, Day 0",−
same,microbial growth,"alkane degrading culture; FT Diesel + 1 Wt %, Day 1",−
same,microbial growth,"alkane degrading culture; FT Diesel + 1 Wt %, Day 5",−
same,microbial growth,"alkane degrading culture; FT Diesel + 1 Wt %, Day 7",−
same,microbial growth,"alkane degrading culture; FT Diesel + 1 Wt %, Day 8",−
same,microbial growth,"alkane degrading culture; FT Diesel + 1 Wt %, Day 19",−
same,microbial growth,"alkane degrading culture; FT Diesel + 100 ppm, Day 0",−
same,microbial growth,"alkane degrading culture; FT Diesel + 100 ppm, Day 1",−
same,microbial growth,"alkane degrading culture; FT Diesel + 100 ppm, Day 5",+
same,microbial growth,"alkane degrading culture; FT Diesel + 100 ppm, Day 7",+
same,microbial growth,"alkane degrading culture; FT Diesel + 100 ppm, Day 8",+
same,microbial growth,"alkane degrading culture; FT Diesel + 100 ppm, Day 19",+
same,microbial growth,alkane degrading culture; [18],−
same,microbial growth,alkane degrading culture; [19],−
same,microbial growth,alkane degrading culture; [20],−
same,microbial growth,alkane degrading culture; [21],−
same,microbial growth,alkane degrading culture; [22],−
same,microbial growth,alkane degrading culture; [23],−
same,microbial growth,alkane degrading culture; [24],−
same,microbial growth,alkane degrading culture; [25],−
same,microbial growth,alkane degrading culture; [26],+
same,microbial growth,alkane degrading culture; [27],+
same,microbial growth,alkane degrading culture; [28],+
same,microbial growth,alkane degrading culture; [29],+
same,microbial growth,microbial growth,no growth
"NCCO [MEA, Monoethanolamine]",toxicity of the nitrogen-containing compound to microbial growth,bacterial inoculum,not excessively toxic
same,microbial growth,bacterial inoculum; [2],−
same,microbial growth,bacterial inoculum; [3],−
same,microbial growth,bacterial inoculum; [4],−
same,microbial growth,bacterial inoculum; [5],+
same,microbial growth,bacterial inoculum; [6],+
same,microbial growth,bacterial inoculum; [7],+
same,microbial growth,bacterial inoculum; [8],+
same,microbial growth,bacterial inoculum; [9],+
same,microbial growth,bacterial inoculum; [10],−
same,microbial growth,bacterial inoculum; [11],−
same,microbial growth,bacterial inoculum; [12],−
same,microbial growth,bacterial inoculum; [13],−
same,microbial growth,bacterial inoculum; [14],+
same,microbial growth,bacterial inoculum; [15],+
same,microbial growth,bacterial inoculum; [16],+
same,microbial growth,bacterial inoculum; [17],+
same,neutralizing 10 ppm of gluteraldehyde,bacterial inoculum,effective
same,LOEC,[1],1700 mg/L
same,NOEC,[1],1000 mg/L
"C#CCO [P, Propargyl alcohol]",microbial growth,"alkane degrading culture; FT Diesel + 1 Wt %, Day 0",−
same,microbial growth,"alkane degrading culture; FT Diesel + 1 Wt %, Day 1",−
same,microbial growth,"alkane degrading culture; FT Diesel + 1 Wt %, Day 5",−
same,microbial growth,"alkane degrading culture; FT Diesel + 1 Wt %, Day 7",−
same,microbial growth,"alkane degrading culture; FT Diesel + 1 Wt %, Day 8",−
same,microbial growth,"alkane degrading culture; FT Diesel + 1 Wt %, Day 19",−
same,microbial growth,"alkane degrading culture; FT Diesel + 100 ppm, Day 0",−
same,microbial growth,"alkane degrading culture; FT Diesel + 100 ppm, Day 1",−
same,microbial growth,"alkane degrading culture; FT Diesel + 100 ppm, Day 5",−
same,microbial growth,"alkane degrading culture; FT Diesel + 100 ppm, Day 7",+
same,microbial growth,"alkane degrading culture; FT Diesel + 100 ppm, Day 8",+
same,microbial growth,"alkane degrading culture; FT Diesel + 100 ppm, Day 19",+
same,microbial growth,alkane degrading culture; [18],−
same,microbial growth,alkane degrading culture; [19],−
same,microbial growth,alkane degrading culture; [20],−
same,microbial growth,alkane degrading culture; [21],−
same,microbial growth,alkane degrading culture; [22],−
same,microbial growth,alkane degrading culture; [23],−
same,microbial growth,alkane degrading culture; [24],−
same,microbial growth,alkane degrading culture; [25],−
same,colour of growth,alkane degrading culture; [26],Yellow
same,microbial growth,alkane degrading culture; [26],+
same,colour of growth,alkane degrading culture; [27],Yellow
same,microbial growth,alkane degrading culture; [27],+
same,colour of growth,alkane degrading culture; [28],Yellow
same,microbial growth,alkane degrading culture; [28],+
same,colour of growth,alkane degrading culture; [29],Yellow
same,microbial growth,alkane degrading culture; [29],+
"Nc1ccccc1 [aniline, Aniline]",toxicity of the nitrogen-containing compound to microbial growth,bacterial inoculum,excessively toxic
same,microbial growth,bacterial inoculum; [2],−
same,microbial growth,bacterial inoculum; [3],−
same,microbial growth,bacterial inoculum; [4],−
same,microbial growth,bacterial inoculum; [5],−
same,microbial growth,bacterial inoculum; [6],−
same,microbial growth,bacterial inoculum; [7],−
same,microbial growth,bacterial inoculum; [8],−
same,microbial growth,bacterial inoculum; [9],−
"CCNCC [diethylamine, Diethylamine]",toxicity of the nitrogen-containing compound to microbial growth,bacterial inoculum,not excessively toxic
same,microbial growth,bacterial inoculum; [2],−
same,microbial growth,bacterial inoculum; [3],−
same,microbial growth,bacterial inoculum; [4],−
same,microbial growth,bacterial inoculum; [5],+
same,microbial growth,bacterial inoculum; [6],+
same,microbial growth,bacterial inoculum; [7],+
same,microbial growth,bacterial inoculum; [8],+
same,microbial growth,bacterial inoculum; [9],+
same,microbial growth,bacterial inoculum; [10],−
same,microbial growth,bacterial inoculum; [11],−
same,microbial growth,bacterial inoculum; [12],−
same,microbial growth,bacterial inoculum; [13],+
same,microbial growth,bacterial inoculum; [14],+
same,microbial growth,bacterial inoculum; [15],+
same,microbial growth,bacterial inoculum; [16],+
same,microbial growth,bacterial inoculum; [17],+
same,neutralizing 10 ppm of gluteraldehyde,bacterial inoculum,effective
